Laboratory results as given in PubChem BioAssay AID248 (DTP/NCI, 2004).
“And” between values parts separate entries of the source, which are not always exact repeats. Identical values can stand only once. Inconclusive results and toxic doses are left out. Cut-off read from the data, not from the text of the source: active = T/C of 150% or more; inactive = T/C below 125%.

Test system: L1210 leukemia ip in BDF1 mice, survival T/C
Assay: NCI In Vivo Anticancer Drug Screen. Data for tumor model L1210 Leukemia (intraperitoneal) in B6D2F1 (BDF1) mice
Conditions: endpoint: mean survival time, higher = longer survival
Procedure, shortened: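 Ratio derived from survival: compound-dosed mice over vehicle-dosed mice, all bearing a transplantable tumor.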

[1] = dose: 100.0 mg/kg/injection, schedule: Q01DX009 (ip), vehicle: Klucel (hydroxypropylcellulose) (HPC)
[2] = dose: 200.0 mg/kg/injection, schedule: Q01DX009 (ip), vehicle: Klucel (hydroxypropylcellulose) (HPC)
[3] = dose: 400.0 mg/kg/injection, schedule: Q01DX009 (ip), vehicle: Klucel (hydroxypropylcellulose) (HPC)
[4] = dose: 100.0 mg/kg/injection, schedule: Q04DX003 (ip), vehicle: Klucel (hydroxypropylcellulose) (HPC)
[5] = dose: 200.0 mg/kg/injection, schedule: Q04DX003 (ip), vehicle: Klucel (hydroxypropylcellulose) (HPC)
[6] = dose: 400.0 mg/kg/injection, schedule: Q04DX003 (ip), vehicle: Klucel (hydroxypropylcellulose) (HPC)
[7] = dose: 50.0 mg/kg/injection, schedule: Q01DX001 (ip), vehicle: saline
[8] = dose: 100.0 mg/kg/injection, schedule: Q01DX001 (ip), vehicle: saline
[9] = dose: 200.0 mg/kg/injection, schedule: Q01DX001 (ip), vehicle: saline
[10] = dose: 400.0 mg/kg/injection, schedule: Q01DX001 (ip), vehicle: saline
[11] = dose: 100.0 mg/kg/injection, schedule: Q04DX003 (ip), vehicle: saline
[12] = dose: 200.0 mg/kg/injection, schedule: Q04DX003 (ip), vehicle: saline
[13] = dose: 400.0 mg/kg/injection, schedule: Q04DX003 (ip), vehicle: saline
[14] = dose: 100.0 mg/kg/injection, schedule: Q04DX003 (ip), vehicle: saline with Tween-80
[15] = dose: 200.0 mg/kg/injection, schedule: Q04DX003 (ip), vehicle: saline with Tween-80
[16] = dose: 400.0 mg/kg/injection, schedule: Q04DX003 (ip), vehicle: saline with Tween-80
[17] = dose: 100.0 mg/kg/injection, schedule: Q04DX002 (ip), vehicle: Klucel (hydroxypropylcellulose) (HPC)
[18] = dose: 200.0 mg/kg/injection, schedule: Q04DX002 (ip), vehicle: Klucel (hydroxypropylcellulose) (HPC)
[19] = dose: 100.0 mg/kg/injection, schedule: Q01DX009 (ip), vehicle: saline
[20] = dose: 200.0 mg/kg/injection, schedule: Q01DX009 (ip), vehicle: saline
[21] = dose: 100.0 mg/kg/injection, schedule: Q04DX002 (ip), vehicle: saline
[22] = dose: 200.0 mg/kg/injection, schedule: Q04DX002 (ip), vehicle: saline
[23] = dose: 400.0 mg/kg/injection, schedule: Q04DX002 (ip), vehicle: saline

Measured: T/C

COc1ccc(COC(=O)Nc2ccc(Br)cc2)cc1
inactive: [1] 101 % of control | [2] 98 % of control | [3] 103 % of control

CNc1ccc(S(=O)(=O)O)cc1
inactive: [1] 98 % of control | [4] 104 % of control | [2] 103 % of control | [5] 102 % of control | [3] 101 % of control | [6] 98 % of control

COc1ccc(-c2oc3ccccc3c(=O)c2O)cc1OC
inactive: [7] 87 % of control | [8] 98 % of control | [9] 91 % of control | [10] 93 % of control

CCOP(=O)(OCC)c1cccc(Cl)c1
inactive: dose: 75.0 mg/kg/injection, schedule: Q01DX001 (ip), vehicle: saline 101 % of control

COC(=O)/C(=C\c1cccnc1)NC(=O)c1ccccc1
inactive: [7] 100 % of control | [8] 100 % of control | [11] 97 % of control | [9] 103 % of control | [12] 95 % of control | [13] 97 % of control

Nc1c2ccccc2cc2cccc[n+]12
inactive: dose: 9.38 mg/kg/injection, schedule: Q01DX001 (ip), vehicle: other 101 % of control and 100 % of control | dose: 18.75 mg/kg/injection, schedule: Q01DX001 (ip), vehicle: other 97 % of control and 99 % of control

Nc1nc(N)c(N=Nc2c(Br)cc(S(N)(=O)=O)cc2Br)c(=O)[nH]1
inactive: [8] 100 % of control | [9] 105 % of control | [10] 102 % of control

CN(Cc1ccccc1Cl)C(=O)Nc1cccc(Cl)c1
inactive: [1] 97 % of control | [2] 103 % of control | [3] 114 % of control

CC(C)[C@]12O[C@H]1[C@@H]1O[C@@]13[C@@]1(C)CCC4=C(COC4=O)[C@@H]1C[C@@H]1O[C@@]13C2=O
inactive: dose: 79.0 micrograms/kg/injection, schedule: Q01DX009 (ip), vehicle: saline 92 % of control | dose: 118.0 micrograms/kg/injection, schedule: Q01DX009 (ip), vehicle: saline 105 % of control | dose: 178.0 micrograms/kg/injection, schedule: Q01DX009 (ip), vehicle: saline 99 % of control | dose: 267.0 micrograms/kg/injection, schedule: Q01DX009 (ip), vehicle: saline 101 % of control | dose: 400.0 micrograms/kg/injection, schedule: Q01DX009 (ip), vehicle: saline 108 % of control

CC12CCC(O)CC1CCC1C2CCC2(C)C(C(=O)CO)CCC12 (centres undefined)
inactive: dose: 100.0 mg/kg/injection, schedule: Q01DX001 (sc), vehicle: steriod suspending solution 103 % of control | dose: 200.0 mg/kg/injection, schedule: Q01DX001 (sc), vehicle: steriod suspending solution 103 % of control | dose: 400.0 mg/kg/injection, schedule: Q01DX001 (sc), vehicle: steriod suspending solution 101 % of control

COc1cc(C)c(O)c(C)c1C
inactive: [14] 95 % of control | [15] 95 % of control | [16] 95 % of control

CN(C)c1ccc(/C=C2/CCCCC2=O)cc1
inactive: [1] 98 % of control | [4] 93 % of control | [2] 109 % of control | [5] 103 % of control | [3] 96 % of control | [6] 103 % of control

Nn1c(C(F)(F)F)n[nH]c1=S
inactive: dose: 100.0 mg/kg/injection, schedule: Q04DX003 (ip), vehicle: alcohol 103 % of control | dose: 200.0 mg/kg/injection, schedule: Q04DX003 (ip), vehicle: alcohol 101 % of control | dose: 400.0 mg/kg/injection, schedule: Q04DX003 (ip), vehicle: alcohol 95 % of control

CCCCCCCCCCCCCCCCCCNC(=O)Nc1ccc(OC)cc1
inactive: [17] 93 % of control | [18] 104 % of control | dose: 400.0 mg/kg/injection, schedule: Q04DX002 (ip), vehicle: Klucel (hydroxypropylcellulose) (HPC) 93 % of control

COc1ccc(/C=C2\CSC/C(=C/c3ccc(OC)cc3)C2=O)cc1
inactive: [19] 91 % of control | [11] 95 % of control | [20] 95 % of control | [12] 94 % of control | dose: 400.0 mg/kg/injection, schedule: Q01DX009 (ip), vehicle: saline 87 % of control | [13] 97 % of control

O=c1[nH]cncc1CCC1OCCO1
inactive: [19] 98 % of control | [20] 109 % of control

O=[N+]([O-])c1ccc(S(=O)CCl)cc1 (centres undefined)
inactive: [4] 98 % of control | [5] 105 % of control

CO/N=C(\C)CSS(=O)(=O)OC
inactive: [21] 93 % of control | [22] 96 % of control | [23] 86 % of control

CCCCC(N)P(=O)(O)O (centres undefined)
inactive: dose: 25.0 mg/kg/injection, schedule: Q04DX002 (ip), vehicle: saline 110 % of control | dose: 50.0 mg/kg/injection, schedule: Q04DX002 (ip), vehicle: saline 105 % of control | [21] 95 % of control

CC(=O)Nc1ccc(SC(=O)c2ccc(C(Cl)(Cl)Cl)cc2)cc1
inactive: [14] 101 % of control | [15] 98 % of control | [16] 93 % of control

CC(=O)OC1CCCCC1N (centres undefined)
inactive: [21] 100 % of control and 91 % of control | [22] 92 % of control and 103 % of control | [23] 103 % of control and 114 % of control

O=C(/C=C/c1ccccc1[N+](=O)[O-])c1ccccc1
inactive: [1] 97 % of control | [2] 101 % of control | [3] 98 % of control

CN(C)Cc1cccc(N)c1
inactive: dose: 12.5 mg/kg/injection, schedule: Q01DX009 (ip), vehicle: water 102 % of control | dose: 25.0 mg/kg/injection, schedule: Q01DX009 (ip), vehicle: water 100 % of control | dose: 25.0 mg/kg/injection, schedule: Q04DX003 (ip), vehicle: water 104 % of control | dose: 50.0 mg/kg/injection, schedule: Q01DX009 (ip), vehicle: water 100 % of control | dose: 50.0 mg/kg/injection, schedule: Q04DX003 (ip), vehicle: water 95 % of control | dose: 100.0 mg/kg/injection, schedule: Q04DX003 (ip), vehicle: water 96 % of control and 102 % of control

N/C(=N\OC(=O)c1ccccc1)c1ccccc1
inactive: dose: 50.0 mg/kg/injection, schedule: Q04DX002 (ip), vehicle: Klucel (hydroxypropylcellulose) (HPC) 96 % of control | [17] 104 % of control | [18] 93 % of control

O=C(O)c1ccc(C(=O)O)c(O)c1
inactive: [8] 105 % of control | [9] 97 % of control | [10] 94 % of control

CNC(=O)Oc1ccc(NC(=O)OC)cc1
inactive: [14] 93 % of control | [15] 87 % of control

COc1ccc(N2C(=O)CC(Cl)C2=O)cc1 (centres undefined)
inactive: dose: 22.0 mg/kg/injection, schedule: Q04DX003 (ip), vehicle: Klucel (hydroxypropylcellulose) (HPC) 105 % of control | dose: 44.0 mg/kg/injection, schedule: Q04DX003 (ip), vehicle: Klucel (hydroxypropylcellulose) (HPC) 97 % of control | dose: 87.5 mg/kg/injection, schedule: Q04DX003 (ip), vehicle: saline with Tween-80 103 % of control | dose: 88.0 mg/kg/injection, schedule: Q04DX003 (ip), vehicle: Klucel (hydroxypropylcellulose) (HPC) 111 % of control
